Experiment [1] relates to carrageenan-induced mouse paw edema. The experiment can be described thus: Carrageenan-induced mouse paw oedema. In kind it is in vivo. The settings on record: mice, i.p. 0.15 mmol/kg 5 min before carrageenan, paw weight increase after 3.5 h; for inhibition in vivo at 150 µmol/kg: Mus musculus, ip. As to the method:
For the study of possible anti-inflammatory action, the swelling caused in the sole of the right hind limb by intradermal administration of carrageenan was used as a model of inflammation. Carrageenan-induced edema is a non-specific inflammation that results from a number of different transmitters and resembles human acute inflammation.
The animals were weighed and divided into control, standard and test groups. Each group contained 10 mice. […] An aqueous solution of carrageenan 0.1 mL, 1% w/v) was injected subcutaneously to the sub-plantar region of the right hind paw, with the left paw as control. The tested compounds (suspended in water with a few drops of Tween 80) were given i.p. (0.15 mmol/kg) 5 min before the carrageenan administration. After 3.5 h, the hind paws were excised and were weighed separately. The produced oedema was estimated as a paw weight increase.
For orientation: In the carrageenan paw model, swelling and tenderness develop within hours.

A further experiment has as its target T1, human recombinant COX-2 (Homo sapiens, UniProt P35354).
T1 construct: purchased Cayman Chemical Co., Ann Arbor, MI
T1 sequence (P35354 18-604): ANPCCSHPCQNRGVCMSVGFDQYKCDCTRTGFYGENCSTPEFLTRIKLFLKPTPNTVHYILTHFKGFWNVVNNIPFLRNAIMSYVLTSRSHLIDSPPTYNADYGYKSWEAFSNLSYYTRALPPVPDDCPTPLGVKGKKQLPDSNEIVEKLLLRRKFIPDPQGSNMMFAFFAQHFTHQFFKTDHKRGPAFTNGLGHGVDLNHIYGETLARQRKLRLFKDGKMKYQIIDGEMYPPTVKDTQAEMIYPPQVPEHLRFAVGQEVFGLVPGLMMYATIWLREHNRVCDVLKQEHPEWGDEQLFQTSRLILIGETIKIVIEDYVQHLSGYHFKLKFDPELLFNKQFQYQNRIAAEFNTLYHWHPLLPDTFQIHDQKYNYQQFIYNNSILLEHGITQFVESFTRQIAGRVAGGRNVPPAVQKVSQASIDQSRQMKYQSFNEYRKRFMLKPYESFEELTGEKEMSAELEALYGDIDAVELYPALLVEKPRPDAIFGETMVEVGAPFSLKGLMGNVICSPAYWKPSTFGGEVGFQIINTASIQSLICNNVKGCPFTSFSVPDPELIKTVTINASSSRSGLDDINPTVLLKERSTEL
Put plainly: Inhibition of COX-2 activity (Cayman COX Inhibitor Screening Assay kit). Type of experiment: biochemical. The settings on record: read-out: Inhibition, COX-2, Inhibition (%) 200 μM. The procedure: (§1) The effect of compounds on COX-1 and COX-2 inhibition was measured using a commercial kit provided by Cayman (Cayman Chemical Co., Ann Arbor, MI), applying the instructions of the manufacturer. The kit uses ovine COX-1 and human recombinant COX-2 enzymes. […] The assay measures PGF2a produced by SnCl2 reduction of COX-derived PGH2.

The target of another experiment is T2, soybean LOX (Glycine max, UniProt P08170).
T2 construct: purchased Sigma (St. Louis, MO, USA)
T2 sequence (P08170 1-839): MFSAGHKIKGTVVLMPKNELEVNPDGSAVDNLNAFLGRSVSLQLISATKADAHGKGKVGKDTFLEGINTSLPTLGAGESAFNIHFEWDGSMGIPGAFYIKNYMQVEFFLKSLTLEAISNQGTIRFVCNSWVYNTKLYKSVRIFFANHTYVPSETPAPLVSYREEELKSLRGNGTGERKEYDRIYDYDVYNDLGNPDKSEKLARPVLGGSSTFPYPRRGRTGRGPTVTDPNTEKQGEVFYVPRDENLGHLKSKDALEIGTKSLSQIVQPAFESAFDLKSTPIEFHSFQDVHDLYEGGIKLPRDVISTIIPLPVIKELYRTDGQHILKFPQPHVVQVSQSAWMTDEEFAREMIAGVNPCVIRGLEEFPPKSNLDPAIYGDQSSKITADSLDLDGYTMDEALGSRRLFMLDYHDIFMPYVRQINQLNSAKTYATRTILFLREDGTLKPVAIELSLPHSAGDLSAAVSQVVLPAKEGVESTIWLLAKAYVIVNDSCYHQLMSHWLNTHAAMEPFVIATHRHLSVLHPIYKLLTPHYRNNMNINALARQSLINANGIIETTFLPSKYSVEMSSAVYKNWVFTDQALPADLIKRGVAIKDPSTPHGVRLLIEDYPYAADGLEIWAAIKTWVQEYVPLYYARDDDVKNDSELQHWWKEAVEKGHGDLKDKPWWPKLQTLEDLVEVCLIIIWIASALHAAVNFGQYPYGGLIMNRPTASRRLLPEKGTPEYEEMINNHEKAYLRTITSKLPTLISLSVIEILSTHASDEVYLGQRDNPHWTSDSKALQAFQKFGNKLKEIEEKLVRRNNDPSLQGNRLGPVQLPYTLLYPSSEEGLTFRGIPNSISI
Put plainly: Inhibition of LOX activity. In kind it is biochemical. As to the method: The reaction mixture contained (final concentration 300 μM) the test compounds, dissolved in absolute ethanol (10–300 μM), or the solvent (control), soybean LOX, dissolved in 0.9% NaCl solution (250 u/mL) and sodium linoleate (100 μM), in Tris-HCl buffer, pH 9.0. The reaction was followed for 7 min at 28 °C, recording the absorbance (234 nm) of a conjugated diene structure, due to the formation of 13-hydroperoxy-linoleic acid. […] For the estimation of the type of inhibition, the above experiments were repeated, using 1 mM sodium linoleate, which is higher than the saturating substrate concentration.

In a further experiment the target is T3, ovine COX-1 (Ovis aries, UniProt P05979).
T3 construct: purchased Cayman Chemical Co., Ann Arbor, MI
T3 sequence (P05979 25-600): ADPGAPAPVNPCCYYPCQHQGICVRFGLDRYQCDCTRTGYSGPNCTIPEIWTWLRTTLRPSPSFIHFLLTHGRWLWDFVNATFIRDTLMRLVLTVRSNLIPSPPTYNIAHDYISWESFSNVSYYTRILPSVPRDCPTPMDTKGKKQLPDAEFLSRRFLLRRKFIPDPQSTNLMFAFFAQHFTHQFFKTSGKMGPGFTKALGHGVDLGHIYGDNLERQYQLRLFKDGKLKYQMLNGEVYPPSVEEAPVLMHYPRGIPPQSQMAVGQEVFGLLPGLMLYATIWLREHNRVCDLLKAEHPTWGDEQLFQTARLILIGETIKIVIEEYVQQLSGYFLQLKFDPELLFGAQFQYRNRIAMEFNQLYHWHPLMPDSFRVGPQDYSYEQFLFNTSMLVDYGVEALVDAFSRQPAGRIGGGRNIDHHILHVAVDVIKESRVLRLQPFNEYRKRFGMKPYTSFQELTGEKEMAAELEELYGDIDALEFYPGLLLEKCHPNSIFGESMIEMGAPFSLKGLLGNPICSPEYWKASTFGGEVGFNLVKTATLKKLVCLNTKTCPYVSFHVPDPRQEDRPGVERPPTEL
Put plainly: Inhibition of COX-1 activity (Cayman COX Inhibitor Screening Assay kit). Type of experiment: biochemical. As to the method:
as §1

In the case of `Cc1cnc(N=C2NC(=O)C(=Cc3ccccc3)S2)s1` [Compound 1], the inhibition in vivo (usually how much of the control response was suppressed) at 150 µmol/kg in experiment [1] was determined as 51.6 ± 1.5%.

`Cc1cnc(N=C2NC(=O)C(=Cc3ccccc3O)S2)s1` [Compound 2] registered an inhibition in vivo at 150 µmol/kg in experiment [1] of 43.1 ± 1.9%.

`Cc1cnc(N=C2NC(=O)C(=Cc3ccc(O)cc3)S2)s1` [Compound 3]: in experiment [1], the inhibition in vivo at 150 µmol/kg is 31.4% and the “Oedema Inhibition (%)” value stood at 31.4 ± 2.3 %.

Compound `COc1ccc(C=C2SC(=Nc3ncc(C)s3)NC2=O)cc1` [Compound 4] gave an inhibition in vivo at 150 µmol/kg in experiment [1] of 48.3 ± 1.8%.

Compound `COc1ccc(OC)c(C=C2SC(=Nc3ncc(C)s3)NC2=O)c1` [Compound 5] gave an inhibition in vivo at 150 µmol/kg in experiment [1] of 44.9 ± 1.7%.

`Cc1cnc(N=C2NC(=O)C(=Cc3ccccc3[N+](=O)[O-])S2)s1` [Compound 6]: the inhibition in vivo at 150 µmol/kg in experiment [1] was determined as 48.7 ± 1.8%.

In experiment [1], `Cc1cnc(N=C2NC(=O)C(=Cc3cccc([N+](=O)[O-])c3)S2)s1` [Compound 7] had an inhibition in vivo at 150 µmol/kg of 54.5 ± 1.4%.

On to `Cc1cnc(N=C2NC(=O)C(=Cc3ccc([N+](=O)[O-])cc3)S2)s1` [Compound 8], for which the inhibition – broadly, how much of the control response was suppressed – at 200 µM at human recombinant COX-2 stood at 0%. Also, in experiment [1], the inhibition in vivo at 150 µmol/kg amounted to 55.4% and the “Oedema Inhibition (%)” value is listed as 55.4 ± 1.5 %. For the same compound, the inhibition at 100 µM on soybean LOX was 7.88 ± 2.1%. Also, at ovine COX-1, the IC50 (as a rule, the concentration that gives 50% inhibition) is 14.4 ± 0.7 µM and testing at 200 µM gave an inhibition of 100%.

`Cc1cnc(N=C2NC(=O)C(=Cc3cccc(F)c3)S2)s1` [Compound 9] came in with an inhibition in vivo at 150 µmol/kg in experiment [1] of 34.8 ± 2.1%.

In the case of `Cc1cnc(N=C2NC(=O)C(=Cc3ccc(F)cc3)S2)s1` [Compound 10], in experiment [1], the inhibition in vivo at 150 µmol/kg worked out at 47.8 ± 1.6%.

For `Cc1cnc(N=C2NC(=O)C(=Cc3ccccc3Cl)S2)s1` [Compound 11], the inhibition in vivo at 150 µmol/kg in experiment [1] turned out to be 43 ± 1.7%.

For the compound `Cc1cnc(N=C2NC(=O)C(=Cc3ccc(Cl)cc3)S2)s1` [Compound 12], in experiment [1], the inhibition in vivo at 150 µmol/kg was found to be 55.6% and the “Oedema Inhibition (%)” value was 55.6 ± 1.5 %.

On to `Cc1cnc(N=C2NC(=O)C(=Cc3cccc(Cl)c3Cl)S2)s1` [Compound 13], for which the inhibition at 200 µM on human recombinant COX-2 was determined as 0%. Moreover, in experiment [1], the inhibition in vivo at 150 µmol/kg is 57.8% and the “Oedema Inhibition (%)” value amounted to 57.8 ± 1.3 %. The compound further came in with an inhibition at 100 µM on soybean LOX of 37.2 ± 1.8%. At ovine COX-1, this compound gave an IC50 of 1.1 ± 0.3 µM and an inhibition at 200 µM of 100%.

In the case of `Cc1cnc(N=C2NC(=O)C(=Cc3ccc(Cl)cc3Cl)S2)s1` [Compound 14], the inhibition in vivo at 150 µmol/kg in experiment [1] was 35.2 ± 2.1%.

In the case of `Cc1cnc(N=C2NC(=O)C(=Cc3c(Cl)cccc3Cl)S2)s1` [Compound 15], the inhibition in vivo at 150 µmol/kg in experiment [1] was 39.4 ± 2.3%.

With `Cc1cnc(N=C2NC(=O)C(=Cc3cccc(Br)c3)S2)s1` [Compound 16], the inhibition at 200 µM at human recombinant COX-2 is 0%. In experiment [1], the inhibition in vivo at 150 µmol/kg came to 57.6% and the “Oedema Inhibition (%)” value was found to be 57.6 ± 1.4 %. Moreover, the inhibition at 100 µM at soybean LOX was found to be 46.7 ± 1.5%. On ovine COX-1, this compound yielded an IC50 of 1.08 ± 0.3 µM and an inhibition at 200 µM of 100%.

In turn, `Cc1cnc(N=C2NC(=O)C(=Cc3ccc(Br)cc3)S2)s1` [Compound 17] had an inhibition in vivo at 150 µmol/kg in experiment [1] of 41.4 ± 1.9%.

As for `COc1ccc2cc([C@H](C)C(=O)O)ccc2c1` [Naproxen, reference compound], the inhibition at 200 µM at human recombinant COX-2 came out at 17 ± 2.3%.

The record behind these values is publication PMC9737349, “Discovery of 5-Methylthiazole-Thiazolidinone Conjugates as Potential Anti-Inflammatory Agents: Molecular Target Identification and In Silico Studies” (Molecules, 2022).
